In one test the target is T1, HLA-DRB1*01:01 (Homo sapiens, UniProt P01903+P01911, A100R/D57E/F55L/F60I/F76Y/I96L/L162R/M171V/P40L/Q125E/R42F/V115G/Y59C).
T1 construct: EBV transformed homozygous cell lines were used as sources of MHC molecules; endogenous in cells; host or cells: EBV transformed homozygous cell lines
Put plainly: HLA class II peptide binding, inhibition of radiolabeled peptide binding to purified MHC.

The target in the next test is T2, HLA-DRB1*04:01 (Homo sapiens, UniProt P01903+P01911, A100K/A169T/F76Y/I96L/K127E/L162R/M171V/N62H/P40V/Q125Y/R42H/S133A/S149N/S66Y/V115G/V209L/W38E).
T2 construct: EBV transformed homozygous cell lines were used as sources of MHC molecules; endogenous in cells; host or cells: EBV transformed homozygous cell lines
The description is as above.

Setting [1] is: citrullinated peptide as listed (X at Cit position), read-out: DRB1*01:01 binding capacity Cit peptide (IC50 nM).
[2] abbreviates: citrullinated peptide as listed (X at Cit position), read-out: DRB1*04:01 binding capacity Cit peptide (IC50 nM).
[3] abbreviates: wild-type (unmodified Arg) 15-mer peptide, purified HLA-DRB1*01:01, read-out: DRB1*01:01 binding capacity, WT peptide (IC50 nM).
Setting [4] is: wild-type (unmodified Arg) 15-mer peptide, purified HLA-DRB1*04:01, read-out: DRB1*04:01 binding capacity, WT peptide (IC50 nM).
Setting [5] is: citrullinated 15-mer (X), purified MHC, inhibition of radiolabeled peptide binding, dash = IC50 >40,000 nM, read-out: DRB1*01:01 binding capacity, Cit peptide (IC50 nM).
Setting [6] is: citrullinated 15-mer (X), purified MHC, inhibition of radiolabeled peptide binding, dash = IC50 >40,000 nM, read-out: DRB1*04:01 binding capacity, Cit peptide (IC50 nM).
[7] abbreviates: citrullinated 15-mer peptide (X = citrulline), purified HLA-DRB1*01:01, read-out: DRB1*01:01 binding capacity, Cit peptide (IC50 nM).
[8] abbreviates: citrullinated 15-mer peptide (X = citrulline), purified HLA-DRB1*04:01, read-out: DRB1*04:01 binding capacity, Cit peptide (IC50 nM).
[9] abbreviates: read-out: DRB1*01:01 binding capacity, WT peptide (IC50 nM).
The mark [10] stands for this setting: read-out: DRB1*04:01 binding capacity, WT peptide (IC50 nM).

This note sets out measurements from paper PMC5421785, “Citrullination only infrequently impacts peptide binding to HLA class II MHC” (PLoS ONE, 2017).

In general, IC50 refers to the midpoint of a concentration-inhibition curve.

Read-outs that look alike come from different tables or passages of the source. Square brackets hold non-standard residues; d marks the D form. Ends that are not written are not given here. Peptide text beside a SMILES is read from it. Cit = NC(=O)NCCC[C@H](N)C(=O)O Where only a bound is given, the exact number is not on record here.

Take `CC[C@H](C)[C@H](NC(=O)[C@H](CC(=O)O)NC(=O)[C@H](CCSC)NC(=O)[C@@H]1CCCN1C(=O)[C@H](C)NC(=O)[C@@H](NC(=O)[C@H](CC(=O)O)NC(=O)[C@@H](NC(=O)[C@@H](NC(=O)[C@@H]1CCCN1C(=O)[C@H](CC(C)C)NC(=O)[C@H](CCCNC(N)=O)NC(=O)[C@H](CO)NC(=O)[C@@H](NC(=O)[C@@H](N)CCCCN)[C@@H](C)O)[C@@H](C)CC)[C@@H](C)CC)[C@@H](C)CC)C(=O)O` [KTSXLPIIDIAPMDI] (H-KTS[Cit]LPIIDIAPMDI-OH): the IC50 at HLA-DRB1*01:01 (setting [1]) came to 634 nM; on HLA-DRB1*01:01 (value of the wild-type (non-citrullinated) counterpart of the listed peptide, read-out: DRB1*01:01 binding capacity WT peptide (IC50 nM)), 361 nM; at HLA-DRB1*04:01 (setting [2]) it was 7060 nM; on HLA-DRB1*04:01 (value of the wild-type (non-citrullinated) counterpart of the listed peptide, read-out: DRB1*04:01 binding capacity WT peptide (IC50 nM)) it was 8750 nM.
For DGPKGARGDSGPPGR [Collagen 926 WT], the half-inhibitory concentration (IC50) was 26700 nM on HLA-DRB1*01:01 (setting [3]) and 27400 nM at HLA-DRB1*04:01 (setting [4]).
With `CSCC[C@H](NC(=O)[C@H](CCC(N)=O)NC(=O)[C@@H](NC(=O)[C@H](CC(N)=O)NC(=O)[C@H](C)NC(=O)[C@@H](NC(=O)[C@H](CC(N)=O)NC(=O)[C@@H]1CCCN1C(=O)[C@H](C)NC(=O)[C@@H](N)CC(C)C)[C@@H](C)O)C(C)C)C(=O)N[C@H](C(=O)N[C@@H](Cc1ccccc1)C(=O)N[C@@H](CC(C)C)C(=O)N[C@@H](CCCNC(N)=O)C(=O)N[C@@H](CC(C)C)C(=O)O)[C@@H](C)O` [LAPNTANVQMTFLXL] (H-LAPNTANVQMTFL[Cit]L-OH), the IC50 on HLA-DRB1*01:01 (setting [1]) was 54 nM; at HLA-DRB1*04:01 (setting [2]) it was 17400 nM.
With `CC(C)C[C@H](NC(=O)[C@H](CCC(N)=O)NC(=O)[C@H](CC(=O)O)NC(=O)[C@@H](N)C(C)C)C(=O)N[C@H](C(=O)N[C@@H](CC(N)=O)C(=O)N[C@@H](CC(=O)O)C(=O)N[C@@H](CCCCN)C(=O)N[C@@H](C)C(=O)N[C@@H](CCCNC(N)=O)C(=O)N[C@H](C(=O)N[C@@H](CCC(=O)O)C(=O)N[C@H](C(=O)N[C@@H](CCC(=O)O)C(=O)N[C@@H](CCCNC(=N)N)C(=O)O)C(C)C)C(C)C)[C@@H](C)O` [VDQLTNDKAXVEVER] (H-VDQLTNDKA[Cit]VEVER-OH), the IC50 at HLA-DRB1*01:01 (setting [5]) is 20400 nM; at HLA-DRB1*04:01 (setting [6]) it was over 40000 nM.
On to `CC(C)[C@H](NC(=O)CNC(=O)[C@@H](NC(=O)[C@@H]1CCCN1C(=O)CN)[C@@H](C)O)C(=O)N[C@H](C(=O)NCC(=O)N1CCC[C@H]1C(=O)N[C@@H](CCCCN)C(=O)NCC(=O)N[C@@H](C)C(=O)N[C@@H](CCCNC(N)=O)C(=O)NCC(=O)N[C@@H](C)C(=O)N[C@@H](CCC(N)=O)C(=O)O)[C@@H](C)O` [GPTGVTGPKGAXGAQ] (H-GPTGVTGPKGA[Cit]GAQ-OH), for which the IC50 at HLA-DRB1*01:01 (setting [7]) is 569 nM; at HLA-DRB1*04:01 (setting [8]) it was over 40000 nM.
In the case of SAVRLRSSVPGVRLL [Vimentin 66 WT], the figures for the concentration for half-maximal inhibition (IC50) on HLA-DRB1*01:01 (setting [9]) and at HLA-DRB1*04:01 (setting [10]) were 7.9 nM and 5060 nM, respectively.
Take KAGEKGLPGAPGLRG [Collagen 616 WT]: the IC50 at HLA-DRB1*01:01 (setting [3]) was 363 nM; at HLA-DRB1*04:01 (setting [4]), over 40000 nM.
For `CC(C)C[C@H](NC(=O)[C@H](C)NC(=O)[C@H](CC(=O)O)NC(=O)[C@H](CC(N)=O)NC(=O)[C@H](CC(N)=O)NC(=O)[C@H](CCCNC(=N)N)NC(=O)[C@H](CC(N)=O)NC(=O)[C@H](C)NC(=O)[C@H](C)N)C(=O)N[C@@H](CCCNC(N)=O)C(=O)N[C@@H](CCC(N)=O)C(=O)N[C@@H](C)C(=O)N[C@@H](CCCCN)C(=O)N[C@@H](CCC(N)=O)C(=O)N[C@@H](CCC(=O)O)C(=O)O` [AANRNNDALXQAKQE] (H-AANRNNDAL[Cit]QAKQE-OH; N-terminus and C-terminus assumed), the IC50 at HLA-DRB1*01:01 (setting [5]) and on HLA-DRB1*04:01 (setting [6]) was over 40000 nM in each case. The “DRB1*01:01 binding capacity, WT/cit ratio” value at HLA-DRB1*01:01 (ratio of WT IC50 to Cit IC50) is given as 1.0. At HLA-DRB1*04:01 (ratio of WT IC50 to Cit IC50), the “DRB1*04:01 binding capacity, WT/cit ratio” value was 1.0.
As for GPRGERGFPGERGSP [Collagen 696 WT], the concentration for half-maximal inhibition (IC50) is 11200 nM on HLA-DRB1*01:01 (setting [3]) and over 40000 nM at HLA-DRB1*04:01 (setting [4]).
TGFPGAAGRVGPPGS [Collagen 896 WT]: the values for the half-inhibitory concentration (IC50) at HLA-DRB1*01:01 (setting [3]) and on HLA-DRB1*04:01 (setting [4]) were 431 nM and over 40000 nM, respectively.
As to `CC(C)C[C@H](NC(=O)[C@H](CCC(N)=O)NC(=O)[C@H](CC(=O)O)NC(=O)[C@@H](NC(=O)[C@H](CCC(N)=O)NC(=O)[C@H](CCCNC(=N)N)NC(=O)[C@H](CCCNC(=N)N)NC(=O)[C@H](CC(C)C)NC(=O)[C@@H](N)CCC(=O)O)C(C)C)C(=O)N[C@H](C(=O)N[C@@H](CC(N)=O)C(=O)N[C@@H](CC(=O)O)C(=O)N[C@@H](CCCCN)C(=O)N[C@@H](C)C(=O)N[C@@H](CCCNC(N)=O)C(=O)O)[C@@H](C)O` [ELRRQVDQLTNDKAX] (H-ELRRQVDQLTNDKA[Cit]-OH), the IC50 on HLA-DRB1*01:01 (setting [5]) was 1160 nM; at HLA-DRB1*04:01 (setting [6]), 8090 nM.
As to EEMLQREEAENTLQS [Vimentin 191 WT], the results for the 50% inhibitory concentration (IC50) on HLA-DRB1*01:01 (setting [9]) and on HLA-DRB1*04:01 (setting [10]) were 704 nM and 11900 nM, respectively.
For the molecule YRRMFGGPGTASRPS [Vimentin 11 WT], the IC50 on HLA-DRB1*01:01 (setting [9]) is 440 nM; on HLA-DRB1*04:01 (setting [10]) it was 9750 nM.
Take `CC(C)C[C@H](NC(=O)[C@H](C)NC(=O)[C@H](CO)NC(=O)CNC(=O)[C@H](CC(C)C)NC(=O)[C@H](CO)NC(=O)[C@H](Cc1ccc(O)cc1)NC(=O)[C@@H](NC(=O)[C@H](CCCNC(=N)N)NC(=O)[C@@H](NC(=O)[C@H](CO)NC(=O)[C@@H](NC(=O)[C@@H](NC(=O)[C@@H](N)C(C)C)[C@@H](C)O)[C@@H](C)O)[C@@H](C)O)[C@@H](C)O)C(=O)N[C@@H](CCCNC(N)=O)C(=O)O` [VTTSTRTYSLGSALX] (H-VTTSTRTYSLGSAL[Cit]-OH): the figures for the IC50 at HLA-DRB1*01:01 (setting [5]) and at HLA-DRB1*04:01 (setting [6]) were 9.6 nM and 847 nM, respectively.
On to VDQLTNDKARVEVER [Vimentin 161 WT], for which the IC50 on HLA-DRB1*01:01 (setting [9]) came to 16500 nM; on HLA-DRB1*04:01 (setting [10]), 31600 nM.
As to `CC[C@H](C)[C@H](NC(=O)[C@H](CCCNC(=N)N)NC(=O)[C@H](CO)NC(=O)[C@H](CCC(=O)O)NC(=O)[C@H](CCC(=O)O)NC(=O)CNC(=O)[C@H](CCC(=O)O)NC(=O)[C@H](CC(C)C)NC(=O)[C@H](CC(C)C)NC(=O)[C@H](CCCCN)NC(=O)[C@@H](N)CCCNC(N)=O)C(=O)N[C@@H](CO)C(=O)N[C@@H](CC(C)C)C(=O)N1CCC[C@H]1C(=O)N[C@@H](CC(C)C)C(=O)O` [XKLLEGEESRISLPL], the values for the IC50 on HLA-DRB1*01:01 (setting [7]) and on HLA-DRB1*04:01 (setting [8]) were 853 nM and 1890 nM, respectively.
Take `CC(C)C[C@H](NC(=O)[C@H](CO)NC(=O)[C@H](CCC(N)=O)NC(=O)[C@@H](NC(=O)[C@H](CCC(N)=O)NC(=O)[C@H](CCCNC(N)=O)NC(=O)[C@H](CCCNC(=N)N)NC(=O)[C@H](Cc1ccc(O)cc1)NC(=O)[C@H](CCC(=O)O)NC(=O)[C@@H](NC(=O)[C@@H](N)CO)[C@@H](C)O)C(C)C)C(=O)N[C@H](C(=O)N[C@@H](CS)C(=O)N[C@@H](CCC(=O)O)C(=O)N[C@H](C(=O)O)C(C)C)[C@@H](C)O` [STEYRXQVQSLTCEV] (H-STEYR[Cit]QVQSLTCEV-OH): the concentration for half-maximal inhibition (IC50) at HLA-DRB1*01:01 (setting [7]) came out at 158 nM; at HLA-DRB1*04:01 (setting [8]), 860 nM.
In the case of RTYSLGSALRPSTSR [Vimentin 36 WT], the IC50 was 11 nM at HLA-DRB1*01:01 (setting [9]) and 769 nM at HLA-DRB1*04:01 (setting [10]).
For the molecule LAGQRGIVGLPGQRG [Collagen 976 WT], the IC50 at HLA-DRB1*01:01 (setting [3]) turned out to be 20 nM; at HLA-DRB1*04:01 (setting [4]) it was 9280 nM.
Consider `CC[C@H](C)[C@H](NC(=O)[C@H](CC(=O)O)NC(=O)[C@H](CC(C)C)NC(=O)[C@H](C)NC(=O)[C@H](CCSC)NC(=O)[C@H](CCCCN)NC(=O)[C@@H](NC(=O)[C@H](CC(N)=O)NC(=O)[C@H](CC(C)C)NC(=O)[C@H](CC(C)C)NC(=O)[C@H](CC(=O)O)NC(=O)[C@H](CCC(N)=O)NC(=O)[C@H](Cc1ccc(O)cc1)NC(=O)[C@H](CCC(=O)O)NC(=O)[C@@H](N)CCCNC(N)=O)C(C)C)C(=O)O` [XEYQDLLNVKMALDI], for which the IC50 at HLA-DRB1*01:01 (setting [7]) was found to be 57 nM; at HLA-DRB1*04:01 (setting [8]) it was 1070 nM.
In the case of ASRPSSSRSYVTTST [Vimentin 21 WT], the IC50 at HLA-DRB1*01:01 (setting [9]) amounted to 7580 nM; at HLA-DRB1*04:01 (setting [10]), 1030 nM.
